Test [1] deals with T1, Vaccinia topoisomerase (type Ib) (Vaccinia virus, UniProt P68698).
T1 construct: made in house; host or cells: Escherichia coli BL21 infected with bacteriophage λCE6
In words: biochemical. Particulars: for IC50: IC50 for plasmid relaxation (activity reduced by one-half), pUC19 DNA.

Test [2] deals with T2, bacteriophage λ Integrase (Int) (Escherichia phage lambda, UniProt P03700).
T2 sequence (P03700 1-356): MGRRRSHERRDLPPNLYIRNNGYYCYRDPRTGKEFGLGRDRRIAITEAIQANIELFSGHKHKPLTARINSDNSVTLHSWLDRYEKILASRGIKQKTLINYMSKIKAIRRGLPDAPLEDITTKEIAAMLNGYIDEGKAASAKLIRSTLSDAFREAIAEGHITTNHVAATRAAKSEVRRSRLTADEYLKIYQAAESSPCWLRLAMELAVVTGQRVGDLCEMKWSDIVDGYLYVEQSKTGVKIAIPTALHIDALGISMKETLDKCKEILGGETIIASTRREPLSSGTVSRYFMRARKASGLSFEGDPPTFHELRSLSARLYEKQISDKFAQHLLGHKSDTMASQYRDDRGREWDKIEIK
T2 sequence (P0A6X7 1-99 partner): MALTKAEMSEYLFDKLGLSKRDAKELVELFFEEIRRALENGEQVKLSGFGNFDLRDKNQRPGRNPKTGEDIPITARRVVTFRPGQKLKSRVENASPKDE
T2 sequence (P0A6Y1 1-94 partner): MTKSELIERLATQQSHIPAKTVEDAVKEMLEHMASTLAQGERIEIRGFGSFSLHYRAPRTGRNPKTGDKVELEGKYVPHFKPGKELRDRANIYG
The test is described as follows: Int-mediated bent-L recombination. The format is biochemical. The note with it: for rank of potency at inhibiting recombination among individual peptides: FIG. 6A. As for the experimental part: Recombination Assays. Recombination assays were performed as described (Segall, 1998). Briefly, reactions were performed in a total volume of 10 μl and typically contained 1 nM radiolabeled att site as specified, 4 nM unlabeled att site, 50 ng salmon sperm DNA as nonspecific competitor, 44 mM Tris-Cl (pH 8.0), 60 mM KCl, 0.05 mg/ml bovine serum albumin, 7-11 mM Tris borate (pH 8.9), 5 mM spermidine, 1.3 mM EDTA, and 14.6% v/v glycerol. Int and IHF were present at 55 nM and 35 nM final concentrations respectively. During screening, peptide libraries were incubated with Int on ice for 20 minutes (in the same buffer), and the mix was then added to the rest of the recombination reaction. Final concentrations of peptides are specified for each experiment. Reactions were incubated for 60-90 minutes at 30° C. or 37° C., were stopped with 0.2× volume of 2% SDS, layered onto 5% polyacrylamide Tris/SDS gels, and electrophoresed in 1× Tris Tricine SDS buffer at 100 mA (Segall, 1998). Dried gels were visualized and quantitated using a Molecular Dynamics PhosphorImager.
Int Assays. Site-specific recombination and gel mobility shift assays were performed as described (Segall, 1998). Briefly, reactions were performed in a total volume of 10 or 20 μl and typically contained 1-2 nM radiolabeled att site as specified, 4 nM unlabeled att site, 100-300 ng salmon sperm DNA as nonspecific competitor, 44 mM Tris-Ci (pH 8.0), 60 mM KCl, 0.05 mg/ml bovine serum albumin, 7 mM Tris borate (pH 8.9), 5 mM spermidine, 1.3 mM EDTA, and 14.6% v/v glycerol. Any deviation from this formulation is noted in the figure legends. Gel shift reactions were incubated for 90 minutes at 37° C., layered without loading dyes onto 5% native polyacrylamide gel (29 acrylamide: 1 bis-acrylamide) and electrophoresed in 0.5× Tris borate EDTA buffer. Recombination reactions were stopped with 0.2× volume of 2% SDS, layered onto 5% polyacrylamide Tris/SDS gels, and electrophoresed in 1× Tris Tricine SDS buffer at 100 mA (Segall, 1998). Dried gels were visualized and quantitated using a Molecular Dynamics PhosphorImager. […]

For test [3], the target named is T1, Vaccinia topoisomerase (type Ib). In words: biochemical. The format is biochemical. The note with it: for IC50: IC50 for DNA cleavage (covalent adduct formation).
The target of test [4] is T3, bacteriophage P1 Cre protein (Escherichia phage P1, UniProt P06956).
T3 sequence (P06956 1-343): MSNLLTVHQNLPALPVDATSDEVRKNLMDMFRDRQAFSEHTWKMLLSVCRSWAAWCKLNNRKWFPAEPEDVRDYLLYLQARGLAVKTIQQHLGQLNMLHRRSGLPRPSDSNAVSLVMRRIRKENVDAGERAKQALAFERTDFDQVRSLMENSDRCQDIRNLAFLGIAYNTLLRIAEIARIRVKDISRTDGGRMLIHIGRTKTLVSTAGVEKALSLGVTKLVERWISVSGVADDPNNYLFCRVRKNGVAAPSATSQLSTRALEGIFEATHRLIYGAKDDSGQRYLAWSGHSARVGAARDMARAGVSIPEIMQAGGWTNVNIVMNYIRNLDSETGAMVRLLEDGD
In words: Cre-mediated recombination between two lox site substrates. It counts as biochemical. The source says:
In order to test the specificity of peptide inhibition, we determined whether peptide KWWCRW affects the activity of a relative of the Int recombinase, namely the bacteriophage P1 Cre protein. Indeed, the peptide inhibits Cre-mediated recombination between two lox site substrates (Cassell and Segall, unpublished results).

Where [5] appears, read: IC50, inhibition of bent-L recombination, bent-L pathway.

Values joined by “and” are separate entries in the source; they are usually repeats but may differ in a detail not shown here. Identical values can stand only once. “Also recorded” adds a separate entry of the source. Where no end group is shown, it is not given here.

In general, IC50 refers to the concentration needed to halve the response being measured. In general, inhibition refers to the percentage by which the read-out fell short of the control. Regarding KWWCRW-NH2 [Peptide 59, KWWCRW], the IC50 in test [1] was 3500 nM. For the same substance, the effect on recombination entry in test [2] (1 μM peptide) was “almost complete block on recombination”. In addition, the effect on recombination result in test [2] (10 μM peptide) was “inhibited completely”. For the same substance, in test [2] (setting [5]), the IC50 was < 100 nM and 20 nM. In addition, in test [2] (dose response curves), the “rank of potency at inhibiting recombination among individual peptides” value is “most potent at inhibiting recombination”. For the same substance, in test [3], the “effect on rate of transesterification” value is “slowed the rate of transesterification”; the “inhibition of covalent adduct formation” value is reported as 99%; the “reduction of covalent adduct formation” value is on record as 90%; the IC50 was ~500 nM and 500 nM. Besides, the inhibition at 0.7 µM in test [3] (read-out: inhibition of cleavage) stood at 40%. For the same substance, in test [4], the “effect on Cre-mediated recombination” value is “inhibit”.
For KWWWRW-NH2 [Peptide 56, KWWWRW], the IC50 was 3000 to 4000 nM in test [1], ~40 nM in test [2] (setting [5]) and ~500 nM in test [3]. The “rank of potency at inhibiting recombination among individual peptides” value in test [2] (dose response curves) is on record as “most potent at inhibiting recombination”. Besides, the “effect on rate of transesterification” value in test [3] is given as “slowed the rate of transesterification”. For the same substance, in test [3], the “inhibition of covalent adduct formation” value was 99%. Further, the “effect on Cre-mediated recombination” value in test [4] is listed as “inhibit”.
By EC50 is commonly meant the concentration that produces a half-maximal response. Take WKHYNY-NH2 [Peptide 52, WKHYNY]: the “effect on DNA relaxation” value in test [1] (peptide concentrations up to 42 μM) is given as “no effect”. Besides, the EC50 in test [2] is 200 to 400 nM. Moreover, the effect on recombination result in test [2] (100 μM, the highest peptide concentration tested) is reported as “does not inhibit it completely; also recorded: does not inhibit recombination completely”. Moreover, in test [2] (IC50, accumulation of Holliday junctions, bent-L pathway), the IC50 was 200 nM. Moreover, the “peptide concentration at which the most HJs accumulate” value in test [2] (bent-L pathway) was “about 2 μM”. In test [2] (dose response curves, FIG. 6B), the “rank of potency at causing the accumulation of HJs among individual peptides” value is “most potent at causing the accumulation of HJs”. Further, the “effect on transesterification (DNA cleavage)” value in test [3] is recorded as “did not inhibit transesterification; also recorded: do not inhibit cleavage”. For the same substance, the “accumulation of Holliday junctions in Cre-mediated recombination” value in test [4] was “does cause accumulation of Holliday junctions”.
